In ChEMBL document CHEMBL1201862, “PubChem BioAssay data set” (2004):
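Dose response: 5 concentrations. Exposure: 48 h. Format: 96-well plates. Endpoint: linear interpolation; highest concentration if not reached. Here, GI50 denotes the concentration required for 50% inhibition of growth.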 Active and inactive are the calls of the source. Rule as the data show it: active = GI50 up to about 1.1 µM and inactive = higher.

What was measured:
Test in all cases: DTP human tumour cell line panel, 48 h
[1] = system: SK-MEL-5
[2] = system: OVCAR-3
[3] = system: SF-268
[4] = system: 786-0
[5] = system: A498
[6] = system: M19-MEL
[7] = system: SN12C
[8] = system: SNB-78
[9] = system: LXFL 529
[10] = system: DMS-273
[11] = system: TK-10
[12] = system: RPMI-8226
[13] = system: KM12
[14] = system: M14
[15] = system: CCRF-CEM
[16] = system: KM-20L2
[17] = system: OVCAR-8
[18] = system: NCI-H226
[19] = system: IGROV-1
[20] = system: SR
[21] = system: HT-29
[22] = system: HOP-62
[23] = system: Malme-3M
[24] = system: HOP-18
[25] = system: CAKI-1
[26] = system: RXF 393
[27] = system: SK-MEL-28
[28] = system: HCC 2998
[29] = system: SNB-75
[30] = system: HCT-15
[31] = system: HOP-92
[32] = system: ACHN
[33] = system: SW-620
[34] = system: UO-31
[35] = system: COLO 205
[36] = system: MOLT-4
[37] = system: K562
[38] = system: SK-MEL-2
[39] = system: SF-539
[40] = system: LOX IMVI
[41] = system: SK-OV-3
[42] = system: RXF 631
[43] = system: NCI-H23
[44] = system: EKVX
[45] = system: A549
[46] = system: HL-60
[47] = system: OVCAR-5
[48] = system: UACC-257
[49] = system: HCT-116
[50] = system: U-251
[51] = system: XF498
[52] = system: SNB-19
[53] = system: NCI-H522
[54] = system: NCI-H460
[55] = system: SF-295
[56] = system: UACC-62

COc1ccc(NC(=O)CCc2cc(C(C)(C)C)[nH]n2)cc1
GI50 [1]: > 100 µM (inactive)
GI50 [2]: > 100 µM (inactive)
GI50 [3]: > 100 µM (inactive)
GI50 [4]: > 100 µM (inactive)
GI50 [5]: > 100 µM (inactive)
GI50 [6]: > 100 µM (inactive)
GI50 [7]: > 100 µM (inactive)
GI50 [8]: > 100 µM (inactive)
GI50 [9]: > 100 µM (inactive)
GI50 [10]: > 100 µM (inactive)
GI50 [11]: > 100 µM (inactive)
GI50 [12]: > 100 µM (inactive)
GI50 [13]: > 100 µM (inactive)
GI50 [14]: > 100 µM (inactive)
GI50 [15]: > 100 µM (inactive)
GI50 [16]: > 100 µM (inactive)
GI50 [17]: > 100 µM (inactive)
GI50 [18]: > 100 µM (inactive)
GI50 [19]: > 100 µM (inactive)
GI50 [20]: > 100 µM (inactive)
GI50 [21]: > 100 µM (inactive)
GI50 [22]: > 100 µM (inactive)
GI50 [23]: > 100 µM (inactive)
GI50 [24]: > 100 µM (inactive)
GI50 [25]: > 100 µM (inactive)
GI50 [26]: > 100 µM (inactive)
GI50 [27]: > 100 µM (inactive)
GI50 [28]: > 100 µM (inactive)
GI50 [29]: > 100 µM (inactive)
GI50 [30]: > 100 µM
GI50 [31]: > 100 µM (inactive)
GI50 [32]: > 100 µM (inactive)
GI50 [33]: > 100 µM (inactive)
GI50 [34]: > 100 µM (inactive)
GI50 [35]: > 100 µM (inactive)
GI50 [36]: > 100 µM (inactive)
GI50 [37]: > 100 µM (inactive)
GI50 [38]: > 100 µM (inactive)
GI50 [39]: > 100 µM (inactive)
GI50 [40]: > 100 µM (inactive)
GI50 [41]: > 100 µM (inactive)
GI50 [42]: > 100 µM (inactive)
GI50 [43]: > 100 µM (inactive)
GI50 [44]: > 100 µM (inactive)
GI50 [45]: > 100 µM (inactive)
GI50 [46]: > 100 µM (inactive)
GI50 [47]: > 100 µM (inactive)
GI50 [48]: > 100 µM (inactive)
GI50 [49]: > 100 µM (inactive)
GI50 [50]: > 100 µM (inactive)
GI50 [51]: > 100 µM (inactive)
GI50 [52]: > 100 µM (inactive)
GI50 [53]: 74 µM (inactive)
GI50 [54]: > 100 µM (inactive)
GI50 [55]: > 100 µM (inactive)
GI50 [56]: > 100 µM (inactive)
